What follows are compounds tested against T1, rat MCH1 receptor (Rattus norvegicus, UniProt P97639) (assay: Radioligand binding assay at cloned rat MCH1 receptor ([3H]Compound A displacement)). Conditions: KI, cloned rat MCH1, membranes of transfected Peakr293 cells, 0.08 nM [3H]Compound A, 25° C., 90 minutes.
T1 construct: expressed in transfected cells; host or cells: Human embryonic kidney Peak rapid 293 cells (Peakr293), transient, calcium phosphate; membranes
T1 sequence (P97639 whole entry): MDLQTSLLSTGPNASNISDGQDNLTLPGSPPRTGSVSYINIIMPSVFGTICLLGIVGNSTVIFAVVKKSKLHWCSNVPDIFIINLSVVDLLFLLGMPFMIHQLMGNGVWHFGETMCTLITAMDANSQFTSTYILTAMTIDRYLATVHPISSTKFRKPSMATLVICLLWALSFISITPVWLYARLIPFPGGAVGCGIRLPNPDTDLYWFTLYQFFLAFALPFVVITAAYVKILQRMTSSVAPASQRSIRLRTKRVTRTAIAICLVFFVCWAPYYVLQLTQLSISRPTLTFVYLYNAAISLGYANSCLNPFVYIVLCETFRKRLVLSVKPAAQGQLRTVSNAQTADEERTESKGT
Protocol: For binding assays, pellets of transfected cells are suspended in ice-cold buffer (20 mM Tris.HCl, 5 mM EDTA, pH 7.4) and homogenized by sonication for 7 sec. The cell lysates are centrifuged at 200×g for 5 min at 4° C. The supernatants are then centrifuged at 40,000×g for 20 min at 4° C. The resulting pellets are washed once in the homogenization buffer and suspended in binding buffer (see methods for radioligand binding). Protein concentrations are determined by the method of Bradford (1976) using bovine serum albumin as the standard. Binding assays are usually performed immediately, however it is possible to prepare membranes in batch and store frozen in liquid nitrogen for future use.
Radioligand binding assays for the rat MCH1 receptor were carried out using plasmid pcDNA3.1-rMCH1-f (ATCC Patent Deposit Designation No. PTA-3505). Plasmid pcDNA3.1-rMCH1-f comprises the regulatory elements necessary for expression of DNA in a mammalian cell operatively linked to DNA encoding the rat MCH1 receptor so as to permit expression thereof. Plasmid pcDNA3.1-rMCH1-f was deposited on Jul. 5, 2001, with the American Type Culture Collection (ATCC), 12301 Parklawn Drive, Rockville, Md. 20852, U.S.A. under the provisions of the Budapest Treaty for the International Recognition of the Deposit of Microorganisms for the Purposes of Patent Procedure and was accorded ATCC Patent Deposit Designation No. PTA-3505.
Human embryonic kidney Peak rapid 293 cells (Peakr293 cells) were transiently transfected with DNA encoding the MCH1 receptor utilizing the calcium phosphate method and cell membranes were prepared as described above. Binding experiments with membranes from Peakr293 cells transfected with the rat MCH1 receptor were performed with 0.08 nM [^3H]Compound A (custom labeled by Amersham) (the synthesis of Compound A is described in detail below) using an incubation buffer consisting of 50 mM Tris pH 7.4, 10 mM MgCl2, 0.16 mM PMSF, 1 mM 1,10 phenantroline and 0.2% BSA. Binding was performed at 25° C. for 90 minutes. Incubations were terminated by rapid vacuum filtration over GF/C glass fiber filters, presoaked in 5% PEI using […] Tris pH 7.4 as wash buffer. In all experiments, nonspecific binding is defined using […] Compound A.
The compounds described above were assayed using cloned rat MCH1.
With O=C(NCCCCCN1CCC2(C=Cc3ccccc32)CC1)C(c1ccccc1)c1ccccc1 [Example 40, 2,2-DIPHENYL-N-(5-(SPIRO[INDENE-1,4′-PIPERIDINE]-10-YL)PENTYL)ACETAMIDE] the Ki was 0.384 µM. O=C(NCCN1CCC2(CCc3ccccc32)CC1)c1cccc2ccccc12 [Example 42, NAPHTHYL-N-(2-(SPIRO[INDANE-1,4′-PIPERIDINE]-10-YLETHYL)CARBOXAMIDE] was tested, and the Ki was 0.545 µM. CC(C)(C(=O)NCCCN1CCC2(CCc3ccccc32)CC1)c1ccc(Cl)cc1 [Example 46] gave a Ki of 0.0841 µM. Work on Cc1ccc(C(C(=O)NCCCN2CCC3(CCc4ccccc43)CC2)c2ccc(C)cc2)cc1 [Example 48, 2,2-BIS(4-METHYL)PHENYL)-N-(3-(SPIRO[INDANE-1,4′-PIPERIDINE]-10-YL)PROPYL)ACETAMIDE] yielded a Ki of 0.0297 µM. O=C(NCCCN1CCC2(CCc3ccccc32)CC1)C(c1ccccc1)(c1ccccc1)c1ccccc1 [Example 49, 2,2,2-TRIPHENYL-N-(3-(SPIRO[INDANE-1,4′-PIPERIDINE]-10-YL)PROPYL)ACETAMIDE] showed a Ki of 0.121 µM. Work on O=C(NCCCN1CCC2(CCc3ccccc32)CC1)C1(c2ccc(F)cc2)CCCC1 [Example 54, [(4-FLUOROPHENYL)CYCLOPENTYL]-N-(3-(SPIRO[INDANE-1,4′-PIPERIDINE]-10-YL)PROPYL)CARBOXAMIDE] yielded a Ki of 0.208 µM.

Same assay, conditions: cloned rat MCH1, membranes of transfected Peakr293 cells, 0.08 nM [3H]Compound A, 25° C., 90 minutes; read-out: KI
With CC(C)(C)c1cc(C(=O)NCCCCCN2CCC3(C=Cc4ccccc43)CC2)n(Cc2ccccc2)n1 [Example 37, [3-(TERT-BUTYL)-1-BENZYL)PYRAZOL-5-YL]-N-(5-(SPIRO[INDENE-1,4′-PIPERIDINE]-10-YL)PENTYL)CARBOXAMIDE] the Ki was 0.794 µM. Work on O=C(NCCCN1CCC2(C=Cc3ccccc32)CC1)C(c1ccccc1)c1ccccc1 [Example 38, 2,2-DIPHENYL-N-(3-SPIRO[INDENE-1,4′-PIPERIDINE]-10-YLPROPYL)ACETAMIDE] yielded a Ki of 0.0065 µM. For O=C(NCCCN1CCC2(CCCc3ccccc32)CC1)C(c1ccccc1)c1ccccc1 [Example 39, 2,2-DIPHENYL-N-(3-SPIRO[1,2,3,4-TETRAHYDRONAPHTHALENE-1,4′-PIPERIDINE]-11-YLPROPYL)ACETAMIDE], the Ki was 0.128 µM. O=C(NCCN1CCC2(CCc3ccccc32)CC1)C(c1ccccc1)c1ccccc1 [Example 41, 2,2-DIPHENYL-N-(2-(SPIRO[INDANE-1,4′-PIPERIDINE]-10-YLETHYL) ACETAMIDE] gave a Ki of 0.103 µM. Work on O=C(NCCN1CCC2(CCc3ccccc32)CC1)c1cccc(Cl)c1 [Example 43, (3-CHLOROPHENYL)-N-(2-(SPIRO[INDANE-1,4′-PIPERIDINE]-10-YLETHYL)CARBOXAMIDE] yielded a Ki of 0.507 µM. O=C(NCCN1CCC2(CCc3ccccc32)CC1)c1cc(Cl)cc(Cl)c1 [Example 44, (3,5-DICHLOROPHENYL)-N-(2-(SPIRO[INDANE-1,4′-PIPERIDINE]-10-YLETHYL)CARBOXAMIDE] showed a Ki of 0.182 µM. For O=C(NCCN1CCC2(CCc3ccccc32)CC1)c1ccc(F)c(F)c1 [Example 45, (3,4-DIFLUOROPHENYL)-N-(2-(SPIRO[INDANE-1,4′-PIPERIDINE]-10-YLETHYL)CARBOXAMIDE], the Ki was 0.802 µM. Compound CC(C(=O)NCCCN1CCC2(CCc3ccccc32)CC1)(c1ccccc1)c1ccccc1 [Example 47, 2,2-DIPHENYL-N-(3-(SPIRO[INDANE-1,4′-PIPERIDINE]-10-YL)PROPYL)PROPANAMIDE] has a Ki of 0.154 µM. With CC(C(=O)NCCCN1CCC2(CCc3ccccc32)CC1)c1ccc(Cl)cc1 (centres unmarked) [Example 50, 2-(4-CHLOROPHENYL)-N-(3-(SPIRO[INDANE-1,4′-PIPERIDINE]-10-YL)PROPYL)PROPANAMIDE] the Ki was 0.194 µM. For O=C(NCCCN1CCC2(CCc3ccccc32)CC1)C1(c2ccc(Cl)cc2)CCCC1 [Example 52, [1-(4-CHLOROPHENYL)CYCLOPENTYL]-N-(3-(SPIRO[INDANE-1,4′-PIPERIDINE]-10-YL)PROPYL)CARBOXAMIDE], the Ki was 0.112 µM. Compound O=C(NCCCN1CCC2(CCc3ccccc32)CC1)C1(c2ccc(Cl)cc2)CCCCC1 [Example 53, 1-[(4-CHLOROPHENYL)CYCLOHEXYL]-N-(3-(SPIRO[INDANE-1,4′-PIPERIDINE]-10-YL)PROPYL)CARBOXAMIDE] has a Ki of 0.0569 µM.
